For assay [1], the target named is T1, Protein skinhead-1 (Caenorhabditis elegans, UniProt P34707).
T1 sequence (P34707 whole entry): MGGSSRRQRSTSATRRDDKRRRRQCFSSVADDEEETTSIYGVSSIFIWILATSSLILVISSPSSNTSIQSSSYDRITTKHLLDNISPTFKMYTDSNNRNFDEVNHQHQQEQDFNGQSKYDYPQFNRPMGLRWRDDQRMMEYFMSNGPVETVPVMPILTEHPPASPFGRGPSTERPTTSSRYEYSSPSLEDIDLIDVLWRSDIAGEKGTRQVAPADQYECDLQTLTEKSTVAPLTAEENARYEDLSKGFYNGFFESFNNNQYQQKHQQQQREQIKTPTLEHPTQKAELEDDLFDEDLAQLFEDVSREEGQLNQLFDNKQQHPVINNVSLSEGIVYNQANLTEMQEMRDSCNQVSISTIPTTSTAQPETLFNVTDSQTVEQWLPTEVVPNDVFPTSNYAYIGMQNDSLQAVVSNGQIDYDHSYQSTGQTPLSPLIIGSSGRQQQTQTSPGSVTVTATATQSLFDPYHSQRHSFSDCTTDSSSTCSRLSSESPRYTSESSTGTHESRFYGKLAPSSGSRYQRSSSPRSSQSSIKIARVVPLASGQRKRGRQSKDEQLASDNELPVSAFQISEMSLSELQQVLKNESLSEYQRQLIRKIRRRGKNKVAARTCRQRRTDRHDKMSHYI
It is filed as functional.

Assay [2] addresses Transthyretin (Homo sapiens, UniProt P02766). The assay can be described thus: Luminescence-based cell-based high throughput dose response assay to identify activators of Transthyretin (TTR) transcription. It is filed as functional.
Assay [3] in a line: NIH:OVCAR-3 ovarian cancer cell cytotoxicity, dose response, PAX8 inhibitor project, plate reader, dry powder samples (AID 743044). It is filed as functional, cell-based.
Assay [4] can be described thus: IOSE-T80 ovarian epithelial cell cytotoxicity, dose response, cytotoxicity control for PAX8 inhibitor project, plate reader, dry powder samples (AID 743045). It is filed as functional, cell-based.
Assay [5] is described as follows: non-specific cell cytotoxicity, dose response, cytotoxicity control for PAX8 inhibitor project, plate reader, dry powder samples (AID 743021). It is filed as functional, cell-based.
In assay [6] the target is Paired box protein Pax-8 (Homo sapiens, UniProt Q06710). Nature of the assay: inhibitors of PAX8-driven TPO luciferase reporter, dose response, RMG-I cells, cherry-pick (AID 687027).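 Further: luciferase reporter driven by Pax8 target thyroperoxidase promoter measured by SteadyGlo luminescence.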 It is filed as functional, cell-based. (In a reporter assay the amount or activity of a reporter protein is the signal.)
The nature of assay [7]: cytotoxicity in OVCAR8 ovarian cancer cells, dose response, PAX8 project, cell-based, plate reader, dry powder samples (AID 743197). To be noted: OVCAR-8. It is filed as functional.
Assay [8] is described as follows: P. falciparum Dd2 growth inhibitors, dose response, SYBR Green, cherry-picked samples (AID 1159567). It is filed as functional, cell-based.
Assay [9] can be described thus: A2780 ovarian cancer cell cytotoxicity, dose response, cytotoxicity control, plate reader, dry powder samples (AID 743046). It is filed as functional, cell-based.
Assay [10] is described as follows: IGROV1 ovarian cancer cell cytotoxicity, dose response, PAX8 inhibitor project, plate reader, dry powder samples (AID 743043). It is filed as functional, cell-based. The conditions noted are these: IGROV-1.
Assay [11] can be described thus: HepG2 cell cytotoxicity, dose response, cytotoxicity control, cherry-picked samples (AID 1159577). It is filed as functional, cell-based.
For assay [12], the target named is T2, Estrogen receptor (Homo sapiens, UniProt P03372).
T2 sequence (P03372 whole entry): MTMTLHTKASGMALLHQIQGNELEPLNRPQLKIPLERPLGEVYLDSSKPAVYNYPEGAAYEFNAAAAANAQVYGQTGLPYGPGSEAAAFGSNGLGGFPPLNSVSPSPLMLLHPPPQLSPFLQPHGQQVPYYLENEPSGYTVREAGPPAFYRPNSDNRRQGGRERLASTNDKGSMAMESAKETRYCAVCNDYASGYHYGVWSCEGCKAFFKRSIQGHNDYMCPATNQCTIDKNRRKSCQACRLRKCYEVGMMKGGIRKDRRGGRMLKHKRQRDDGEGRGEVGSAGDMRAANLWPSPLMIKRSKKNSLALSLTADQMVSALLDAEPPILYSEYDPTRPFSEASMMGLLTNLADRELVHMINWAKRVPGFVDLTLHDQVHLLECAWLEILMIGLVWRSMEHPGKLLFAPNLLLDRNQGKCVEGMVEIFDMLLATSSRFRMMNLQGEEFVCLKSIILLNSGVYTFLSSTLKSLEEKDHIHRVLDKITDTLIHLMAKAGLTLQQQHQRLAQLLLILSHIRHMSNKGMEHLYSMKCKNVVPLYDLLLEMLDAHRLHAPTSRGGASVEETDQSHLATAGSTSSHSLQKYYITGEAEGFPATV
Nature of the assay: potentiators of ERα–SRC-1 coactivator binding, dose response, biochemical, TR-FRET, ERα LBD (AID 737). On the technique in general: Time-resolved FRET reads energy transfer from a long-lived donor to a nearby acceptor.

The nature of assay [13]: SNU-C1 cell viability reduction, dose response, CellTiter-Glo luminescence (AID 1117323). It is filed as functional, cell-based. On the technique in general: In ATP-based viability assays light output follows the ATP content of the culture.
Assay [14] in a line: HCT116 cell viability decrease, GSK3B pretreatment – CellTiter-Glo, IC50, dose response (AID 1117339). It is filed as functional. The conditions noted are these: HCT-116.
A short description of assay [15]: cytotoxicity toward Colo320 cells – cell-based, CellTiter-Glo luminescence, IC50, dose response (AID 1117334). The conditions noted are these: COLO 320. It is filed as functional.
Assay [16] can be described thus: CellTiter-Glo luminescent dose response of DLD-1 viability loss (AID 1117352). It is filed as functional.
Assay [17] concerns the target T3, Polyadenylate-binding protein 1 (Homo sapiens, UniProt P11940). Nature of the assay: PABP1 MLLE–PAM2 interaction inhibitors, dose response, miRNA deadenylation inhibitor project, biochemical, fluorescence polarization, Cy5-PAM2 peptide, secondary (AID 602260). It is filed as functional. To be noted: read-out: IC50_Mean.
In assay [18] the target is T3, Polyadenylate-binding protein 1. The assay can be described thus: PABP1 MLLE–PAM2 binding inhibitor potency, dose response, biochemical, fluorescence polarization, FITC-PAM2 peptide (AID 602259). It is filed as functional. To be noted: read-out: IC50_Mean.
Assay [19] can be described thus: cytotoxicity toward HT-29 cells – cell-based, CellTiter-Glo luminescence, IC50, dose response (AID 1117330). It is filed as functional.
Assay [20] can be described thus: Concentration-dependent survival of SW480 colon cancer line, luminescence detection with CellTiter-Glo, half-maximal inhibitory concentration (AID 1117338). It is filed as functional.
Assay [21] in a line: cytotoxicity toward HCT116 cells – cell-based, CellTiter-Glo luminescence, IC50, dose response (AID 1117332). It is filed as functional. The conditions noted are these: HCT-116.
The nature of assay [22]: A375 melanoma cell cytotoxicity, dose response, counter-screen for MITF inhibitor project, CellTiter-Glo luminescence, dry powder, set 2 (AID 624489).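 Further: actives are compounds lowering A375 viability meaning general cytotoxicity.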 It is filed as functional, cell-based. The conditions noted are these: A-375.
A short description of assay [23]: A375 melanoma cell viability loss, dose response, counter-screen for MITF inhibitor project, CellTiter-Glo luminescence, dry powder, set 4 (AID 624364).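 Further: A375 melanoma cells are MITF independent so this is a counter screen.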 It is filed as functional, cell-based. To be noted: A-375.
A short description of assay [24]: Luminescence Cell-Based Dose Response HTS to Identify Activators of Luciferase Translation or Activity in H4 […] Cells. [Related pubchem assays: 1829 (Project Summary), 1814 (Primary HTS)]. It is filed as functional.
Assay [25] in a line: Luminescence Cell-Based Dose Response to Identify Activators of Luciferase Translation or Activity in H4-C Neuroglioblastoma Cells. [Related pubchem assays: 1829 (Project Summary), 1814 (Primary HTS)]. It is filed as functional.
Assay [26] can be described thus: Luminescence Cell-Based Dose Response to Identify Activators of 5'UTR Stem-Loop Driven Prion Protein mRNA Translation in H4-C Neuroglioblastoma Cells. [Related pubchem assays: 1829 (Project Summary), 1814 (Primary HTS)]. It is filed as functional.
Assay [27] in a line: Luminescence Cell-Based Dose Confirmation to Identify Activators of 5'UTR Stem-Loop Driven Alpha-Synuclein mRNA Translation in H4 Neuroglioblastoma Cells. [Related pubchem assays: 1829 (Project Summary), 1814 (Primary HTS)]. It is filed as functional.
Assay [28] has as its target Heat shock protein HSP 90-alpha (Homo sapiens, UniProt P07900). Nature of the assay: Luminescence-based dose response biochemical high throughput screening assay for inhibitors of the Heat Shock Protein 90 (HSP90). [Related pubchem assays: 1831 (Summary AID.), 1846 (Confirmation screen.), 1789 (Primary screen.)].
Assay [29] addresses Cytochrome P450 2C19 (Homo sapiens, UniProt P33261). Nature of the assay: Cytochrome panel assay with activity outcomes. Panel member name: p450-cyp2c19 Compounds with AC50 equal or less than 10 uM are considered active. It is filed as functional. The conditions noted are these: read-out: AC50.
The target in assay [30] is T4, Estrogen receptor beta (Homo sapiens, UniProt Q92731). The assay can be described thus: ERβ–SRC-3 coactivator interaction inhibitors, confirmation, orthogonal assay, biochemical, ELISA, streptavidin-HRP readout (AID 1060).
For assay [31], the target named is Arf-GAP with SH3 domain, ANK repeat and PH domain-containing protein 1 (Homo sapiens, UniProt Q9ULH1). It is filed as functional.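 Further: biochemical fluorescence polarization dose–response screen measuring inhibition of ASAP1; ASAP1 GAP domain stimulating GTP hydrolysis by truncated human ARF1.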
The test system of assay [32] is HT-1080. The assay can be described thus: cytotoxicity in HT1080 fibrosarcoma cells, cell-based, fluorescence readout (AID 620). To be noted: Homo sapiens. It is filed as functional.
Assay [33] addresses ADP-ribosylation factor GTPase-activating protein 1 (Rattus norvegicus, UniProt Q62848). Nature of the assay: Fluorescence polarization-based biochemical high throughput dose response screening assay to identify inhibitors of ADP-ribosylation factor GTPase activating protein 1 (ARFGAP1). It is filed as functional.
Assay [34] in a line: P. falciparum late gametocyte killing, dose response, luminescence (AID 1117278).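 Further: gametocytes exposed to compound for 24 hours.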 It is filed as functional, cell-based.
A short description of assay [35]: Jurkat T cell cytotoxicity, dose response, cytotoxicity control for P. falciparum gametocyte viability project, luminescence (AID 1117277).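 Further: potency reflects loss of cellular ATP meaning fewer viable cells.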 It is filed as functional, cell-based.
A short description of assay [36]: Luminescence Cell-Based Dose Retest to Confirm Inhibitors of Cancer Stem Cells. [Related pubchem assays (depositor defined):AID2717, AID2721]. It is filed as functional. To be noted: Homo sapiens.
In assay [37] the target is T4, Estrogen receptor beta.

The structures appear in SMILES notation. The source made the active and inactive calls. Bounds are passed on as bounds.

The EC50 is the concentration at which the effect is half-maximal. By AC50 is commonly meant the concentration at which the activity in the assay is half-maximal.

T4 sequence (Q92731 whole entry, the tested form may be a part): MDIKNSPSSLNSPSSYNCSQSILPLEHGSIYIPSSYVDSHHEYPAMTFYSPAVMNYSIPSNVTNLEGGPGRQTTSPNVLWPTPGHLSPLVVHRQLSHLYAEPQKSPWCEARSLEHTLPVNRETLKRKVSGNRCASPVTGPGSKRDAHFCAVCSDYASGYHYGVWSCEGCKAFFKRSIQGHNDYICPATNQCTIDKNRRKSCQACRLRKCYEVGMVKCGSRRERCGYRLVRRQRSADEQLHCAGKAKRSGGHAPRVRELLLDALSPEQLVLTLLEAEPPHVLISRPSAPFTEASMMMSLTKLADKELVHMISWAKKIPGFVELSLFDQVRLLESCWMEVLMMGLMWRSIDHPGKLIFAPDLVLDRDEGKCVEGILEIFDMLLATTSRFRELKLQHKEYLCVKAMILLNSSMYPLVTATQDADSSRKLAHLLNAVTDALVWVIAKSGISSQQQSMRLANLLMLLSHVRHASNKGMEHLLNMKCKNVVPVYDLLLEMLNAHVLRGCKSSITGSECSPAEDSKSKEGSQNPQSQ
T3 sequence (P11940 whole entry): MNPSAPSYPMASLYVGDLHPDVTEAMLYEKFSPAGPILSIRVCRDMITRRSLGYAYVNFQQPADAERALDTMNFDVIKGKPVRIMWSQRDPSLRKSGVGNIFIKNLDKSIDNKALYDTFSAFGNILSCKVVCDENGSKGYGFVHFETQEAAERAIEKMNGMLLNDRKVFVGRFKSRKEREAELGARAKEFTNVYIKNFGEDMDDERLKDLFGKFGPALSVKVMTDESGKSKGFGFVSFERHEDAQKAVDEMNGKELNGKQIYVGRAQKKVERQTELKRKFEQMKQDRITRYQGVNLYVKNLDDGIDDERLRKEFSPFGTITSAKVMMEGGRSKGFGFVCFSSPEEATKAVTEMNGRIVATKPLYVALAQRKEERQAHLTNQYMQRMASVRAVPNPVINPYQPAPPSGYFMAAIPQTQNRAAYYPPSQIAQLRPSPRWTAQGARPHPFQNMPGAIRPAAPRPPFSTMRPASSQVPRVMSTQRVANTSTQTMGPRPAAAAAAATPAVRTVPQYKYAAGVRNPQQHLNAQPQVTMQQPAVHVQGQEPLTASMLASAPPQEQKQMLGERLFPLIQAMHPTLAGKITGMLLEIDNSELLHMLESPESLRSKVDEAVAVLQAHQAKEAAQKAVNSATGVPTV
ADP-ribosylation factor GTPase-activating protein 1, sequence (Q62848 whole entry): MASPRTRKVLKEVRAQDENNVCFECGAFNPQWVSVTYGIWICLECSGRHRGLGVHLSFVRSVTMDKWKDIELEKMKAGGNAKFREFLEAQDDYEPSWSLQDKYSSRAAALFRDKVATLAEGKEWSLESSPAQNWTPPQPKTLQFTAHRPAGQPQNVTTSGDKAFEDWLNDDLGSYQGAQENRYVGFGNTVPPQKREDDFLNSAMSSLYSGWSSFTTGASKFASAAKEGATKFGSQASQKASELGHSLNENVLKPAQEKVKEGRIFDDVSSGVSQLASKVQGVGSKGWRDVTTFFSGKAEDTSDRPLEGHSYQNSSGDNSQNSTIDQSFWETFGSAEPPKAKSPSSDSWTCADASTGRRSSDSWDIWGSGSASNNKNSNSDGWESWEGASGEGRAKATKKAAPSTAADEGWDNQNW
Cytochrome P450 2C19, sequence (P33261 whole entry): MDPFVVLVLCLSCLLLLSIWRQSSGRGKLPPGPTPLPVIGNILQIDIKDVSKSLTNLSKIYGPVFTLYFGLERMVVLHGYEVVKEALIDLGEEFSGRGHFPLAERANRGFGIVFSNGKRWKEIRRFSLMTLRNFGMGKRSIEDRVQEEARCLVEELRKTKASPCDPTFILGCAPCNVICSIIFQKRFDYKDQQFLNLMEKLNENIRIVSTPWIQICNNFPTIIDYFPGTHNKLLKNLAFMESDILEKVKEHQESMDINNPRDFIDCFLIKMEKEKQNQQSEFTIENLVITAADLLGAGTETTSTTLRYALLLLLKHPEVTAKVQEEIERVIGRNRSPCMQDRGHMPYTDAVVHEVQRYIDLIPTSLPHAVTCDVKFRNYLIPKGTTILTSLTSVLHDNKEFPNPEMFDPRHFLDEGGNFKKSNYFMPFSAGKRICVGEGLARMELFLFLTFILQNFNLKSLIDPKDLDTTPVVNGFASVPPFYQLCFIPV
Paired box protein Pax-8, sequence (Q06710 whole entry): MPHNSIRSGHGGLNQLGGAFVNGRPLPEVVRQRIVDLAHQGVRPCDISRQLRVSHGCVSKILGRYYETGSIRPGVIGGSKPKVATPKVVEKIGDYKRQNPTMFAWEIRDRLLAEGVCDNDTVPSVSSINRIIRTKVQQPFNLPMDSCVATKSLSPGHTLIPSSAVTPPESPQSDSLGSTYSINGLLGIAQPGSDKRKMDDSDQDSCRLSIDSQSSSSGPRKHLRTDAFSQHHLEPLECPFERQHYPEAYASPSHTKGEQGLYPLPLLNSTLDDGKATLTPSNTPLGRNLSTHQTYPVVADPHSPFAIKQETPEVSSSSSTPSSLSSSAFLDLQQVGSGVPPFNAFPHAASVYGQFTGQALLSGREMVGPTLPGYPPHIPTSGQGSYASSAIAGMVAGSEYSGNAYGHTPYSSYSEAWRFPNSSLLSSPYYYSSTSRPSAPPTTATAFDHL
Arf-GAP with SH3 domain, ANK repeat and PH domain-containing protein 1, sequence (Q9ULH1 whole entry, the tested form may be a part): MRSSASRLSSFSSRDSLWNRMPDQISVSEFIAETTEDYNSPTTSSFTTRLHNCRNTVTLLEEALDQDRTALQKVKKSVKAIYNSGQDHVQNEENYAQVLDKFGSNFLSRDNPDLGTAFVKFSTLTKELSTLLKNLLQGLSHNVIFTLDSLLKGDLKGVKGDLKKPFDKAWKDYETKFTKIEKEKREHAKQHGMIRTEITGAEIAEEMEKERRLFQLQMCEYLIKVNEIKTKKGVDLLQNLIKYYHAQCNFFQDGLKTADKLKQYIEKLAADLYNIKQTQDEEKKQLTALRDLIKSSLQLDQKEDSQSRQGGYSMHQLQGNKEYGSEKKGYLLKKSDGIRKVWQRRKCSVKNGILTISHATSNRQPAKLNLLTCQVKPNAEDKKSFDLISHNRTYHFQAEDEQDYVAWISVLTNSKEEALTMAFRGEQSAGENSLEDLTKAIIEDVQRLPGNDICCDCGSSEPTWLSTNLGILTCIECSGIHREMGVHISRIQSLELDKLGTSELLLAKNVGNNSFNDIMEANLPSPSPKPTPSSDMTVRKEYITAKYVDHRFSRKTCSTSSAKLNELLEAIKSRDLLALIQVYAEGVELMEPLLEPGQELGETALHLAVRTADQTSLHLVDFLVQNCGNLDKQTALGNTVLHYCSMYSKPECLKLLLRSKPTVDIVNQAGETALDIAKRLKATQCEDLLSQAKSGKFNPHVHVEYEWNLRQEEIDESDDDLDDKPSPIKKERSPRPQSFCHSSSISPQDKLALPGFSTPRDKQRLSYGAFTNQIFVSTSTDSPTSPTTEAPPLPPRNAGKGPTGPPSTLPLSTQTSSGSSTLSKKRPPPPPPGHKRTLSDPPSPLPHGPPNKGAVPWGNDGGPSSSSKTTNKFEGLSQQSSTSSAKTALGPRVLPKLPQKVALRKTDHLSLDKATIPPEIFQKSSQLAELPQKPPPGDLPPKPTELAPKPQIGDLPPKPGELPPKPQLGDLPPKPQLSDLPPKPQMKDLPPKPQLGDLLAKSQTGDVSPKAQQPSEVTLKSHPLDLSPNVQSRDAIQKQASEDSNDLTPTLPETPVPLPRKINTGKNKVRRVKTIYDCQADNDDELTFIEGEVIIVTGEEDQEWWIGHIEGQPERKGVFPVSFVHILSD

As for `O=[N+]([O-])c1cccc(-c2noc(-c3ccco3)n2)c1`, the IC50 in assay [1] was > 100 µM (inactive). Further, the EC50 in assay [2] was > 167 µM (inactive).

`C(=C\c1ccc([C@H]2[C@@H]3CN(Cc4ccc5c(c4)OCO5)C[C@H]2N3)cc1)/c1ccccc1`: the AC50 in assay [3] was 17.6 µM (active); in assay [4] it was 32.4 µM (active); in assay [5] it was 31.7 µM (active); in assay [6], 20.2 µM (active); in assay [7], 35.1 µM (active); in [8], 2.83 µM (active). In addition, the AC50 in assay [9] was 12 µM (active); in assay [10] it was 18.8 µM (active); in [11], 8.83 µM (active).

For `CCOc1ccc(CC2SC(Nc3ccccn3)=NC2=O)cc1` (stereo unspecified), in assay [12], the EC50 was 25.1 µM (active).

As for `COP(=S)(OC)Oc1ccc(Sc2ccc(OP(=S)(OC)OC)cc2)cc1` [TEMEFOS], the IC50 in assay [13] was 3.03 µM (active); in [14] it was > 20 µM (inactive); in [15], > 20 µM (inactive); in assay [16] it was > 20 µM (inactive); in assay [17], > 66 µM (inactive); in [18], > 66 µM (inactive). Also, the IC50 was > 20 µM (inactive) in assay [19], 0.0118 µM (active) in assay [20] and > 20 µM (inactive) in assay [21].

Take `O=C(NC1=C(c2ccccc2)C(=O)c2ccccc2C1=O)c1ccccc1`: the AC50 in assay [22] was 18.3 µM (active); in [23], 47.5 µM (active).

As for `CC(C)c1ccc(C(=O)NNC(=O)C2C3CCC(C3)C2C(=O)O)cc1` (stereo unspecified), the 50% effective concentration (EC50) in assay [24] is < 0.1 µM (inconclusive); in [25], 0.301 µM (active); in assay [26], 0.281 µM (active); in [27], 0.232 µM (active).

With `COc1ccc(C(=O)NC2=C(c3ccc(OC(F)(F)F)cc3)C(=O)c3ccccc3C2=O)cc1`, the concentration at half-maximal activity (AC50) was 23.4 µM (active) in assay [22] and 41 µM (active) in assay [23].

On to `O=C(O)c1cc(N/N=C/c2c[nH]c3ccccc23)ccc1Cl`, for which the IC50 in assay [28] was > 2 µM (active).

Turning to `Nc1cc(-c2nnn[nH]2)ccc1F`, the half-maximal activity concentration (AC50) in assay [29] was 28.2 µM (inconclusive). Also, the IC50 in [30] is 0.859 µM (not active).

On to `Cc1cc(C(=O)COC(=O)c2[nH]nc3ccccc23)c(C)n1C`, for which the IC50 in [31] was 37.6 µM (inactive); in assay [33] it was 32.4 µM (inactive). Besides, the concentration for a half-maximal effect (EC50) in assay [32] is given as > 50 µM (not active).

As to `Cc1ccc(C(=O)NC2c3ccccc3-c3ccccc32)cc1`, the results for the IC50 in [34] and in assay [35] were > 109 µM (inactive) and > 1.03 µM (active), respectively. Also, the concentration at half-maximal activity (AC50) in [36] was 0.448 µM (active).

On to `Cc1ccc(Nc2c3c(nc4ncnn24)CCC3)cc1`, for which the EC50 in [2] was > 167 µM (inactive).

Turning to `CCOC(=O)c1c(C)[nH]c(C)c1C(=O)COC(=O)CCOc1ccccc1OC`, the IC50 in assay [37] is recorded as 35.3 µM (not active); in assay [30], > 109 µM (not active).
